This note sets out measurements from US20260125400A1, “TYK2 DEGRADERS AND USES THEREOF” (Kymera Therapeutics, Inc., priority 2023, published 2026).

The test has as its target T1, TYK2 (Homo sapiens, UniProt P29597).
T1 construct: Degradation of TYK2 in cells was quantitatively measured using Meso Scale Discovery (MSD) technology; endogenous in cells; host or cells: OCI-LY10
The experiment in a line: TYK2 MSD degradation in OCI-LY10 cells. It is filed as cell-based. Conditions: TYK2 degradation in OCI-LY10 cells, 4 to 24 hours incubation; for DC50: read-out: TYK2 MSD OCI-LY10 Rel-DC50. Put shortly: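 Cellular TYK2 levels were measured by Meso Scale Discovery sandwich detection in RIPA lysates of OCI-LY10 cells exposed 4 to 24 hours at 37° C to nine 1:3 compound doses starting at 1 to 10 μM final; dose-response fitted by four-parameter regression.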

T1 sequence (P29597 whole entry): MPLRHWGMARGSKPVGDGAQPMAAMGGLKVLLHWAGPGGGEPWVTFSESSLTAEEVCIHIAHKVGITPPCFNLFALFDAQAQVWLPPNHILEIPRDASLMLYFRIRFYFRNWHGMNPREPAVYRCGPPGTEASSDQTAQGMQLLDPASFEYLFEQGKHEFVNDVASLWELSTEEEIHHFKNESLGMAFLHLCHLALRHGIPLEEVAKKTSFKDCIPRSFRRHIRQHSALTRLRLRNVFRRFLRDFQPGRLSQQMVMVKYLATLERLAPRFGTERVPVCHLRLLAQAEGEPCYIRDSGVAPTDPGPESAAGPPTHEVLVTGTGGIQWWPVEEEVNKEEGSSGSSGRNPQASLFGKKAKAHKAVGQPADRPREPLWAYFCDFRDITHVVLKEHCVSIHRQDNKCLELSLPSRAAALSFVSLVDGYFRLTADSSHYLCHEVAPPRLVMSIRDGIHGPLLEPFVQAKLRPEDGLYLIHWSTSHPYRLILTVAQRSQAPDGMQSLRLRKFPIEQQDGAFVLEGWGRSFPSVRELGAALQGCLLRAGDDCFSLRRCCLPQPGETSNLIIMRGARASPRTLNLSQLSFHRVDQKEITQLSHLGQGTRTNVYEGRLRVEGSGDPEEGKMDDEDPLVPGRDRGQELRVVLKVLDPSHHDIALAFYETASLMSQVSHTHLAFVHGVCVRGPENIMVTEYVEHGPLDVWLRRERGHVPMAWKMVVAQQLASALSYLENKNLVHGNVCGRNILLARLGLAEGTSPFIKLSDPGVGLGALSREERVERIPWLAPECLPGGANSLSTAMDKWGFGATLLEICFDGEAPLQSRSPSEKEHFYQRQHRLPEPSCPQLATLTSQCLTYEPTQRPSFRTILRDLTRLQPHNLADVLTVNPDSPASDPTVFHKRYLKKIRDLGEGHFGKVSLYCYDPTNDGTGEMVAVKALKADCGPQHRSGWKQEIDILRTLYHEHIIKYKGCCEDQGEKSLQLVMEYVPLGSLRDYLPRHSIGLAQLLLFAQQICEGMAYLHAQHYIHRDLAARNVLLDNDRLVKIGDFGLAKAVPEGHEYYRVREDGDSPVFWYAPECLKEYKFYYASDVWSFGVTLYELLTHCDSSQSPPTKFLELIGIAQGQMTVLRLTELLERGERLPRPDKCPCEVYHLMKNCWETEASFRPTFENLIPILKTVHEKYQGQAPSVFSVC

Consider `CNc1cc(N2CCc3c(CN4CCC(CN5CCC6(CC5)CN(C(=O)c5ccc(Cl)c(N7CCC(=O)NC7=O)c5)C6)CC4)cccc32)nn2c(C(=O)N[C@@H]3C[C@@H]3F)cnc12` [I-893], for which the “TYK2 MSD OCI-LY10 Dmax %” value was “D (D (<50%))” and the half-maximal degradation concentration (DC50) (as a rule, the midpoint of the concentration-degradation curve) is greater than 100 nM.

For `CNc1cc(N2CCc3c(CN4CCC(CN5CC6(CCN(C(=O)c7ccc(Cl)c(N8CCC(=O)NC8=O)c7)CC6)C5)CC4)cccc32)nn2c(C(=O)N[C@@H]3C[C@@H]3F)cnc12` [I-894], the “TYK2 MSD OCI-LY10 Dmax %” value is recorded as “B (B (90 to >75%))” and the DC50 is less than 10 nM.

In the case of `CNc1cc(N2CCc3c(CCN4CCC5(CC4)CCN(C(=O)c4ccc(Cl)c(N6CCC(=O)NC6=O)c4)CC5)cccc32)nn2c(C(=O)N[C@@H]3C[C@@H]3F)cnc12` [I-895], the “TYK2 MSD OCI-LY10 Dmax %” value is “D (D (<50%))” and the DC50 was greater than 100 nM.

Regarding `CNc1cc(N2CCc3c(-c4ccc(CN5CC6(CCN(C(=O)c7ccc(N8CCC(=O)NC8=O)c(Cl)c7)CC6)C5)cn4)cccc32)nn2c(C(=O)N[C@@H]3C[C@@H]3F)cnc12` [I-896], the “TYK2 MSD OCI-LY10 Dmax %” value is on record as “D (D (<50%))” and the DC50 was greater than 100 nM.

For `CNc1cc(N2CCc3c2cccc3C23CC(CN4CC5(CCN(C(=O)c6ccc(Cl)c(N7CCC(=O)NC7=O)c6)CC5(F)F)C4)(C2)C3)nn2c(C(=O)N[C@@H]3C[C@@H]3F)cnc12` [I-897], the “TYK2 MSD OCI-LY10 Dmax %” value is reported as “B (B (90 to >75%))” and the DC50 was less than 10 nM.

In the case of `CNc1cc(N2CCc3c(-c4ccc(CN5CCC6(CC5)CC(Oc5ccc(N7CCC(=O)NC7=O)c(Cl)c5)C6)cn4)cccc32)nn2c(C(=O)N[C@@H]3C[C@@H]3F)cnc12` [I-898], the “TYK2 MSD OCI-LY10 Dmax %” value is given as “D (D (<50%))” and the DC50 was greater than 100 nM.

For `CNc1cc(N2CCc3c(N4CCC(CN5CC6(CCN(Cc7ccc(Cl)c(N8CCC(=O)NC8=O)c7)CC6(F)F)C5)CC4)cccc32)nn2c(C(=O)N[C@@H]3C[C@@H]3F)cnc12` [I-899], the “TYK2 MSD OCI-LY10 Dmax %” value is on record as “D (D (<50%))” and the DC50 is greater than 100 nM.

For `CNc1cc(N2CCc3c(CN4CCC(N5CCN(CCc6ccc(Cl)c(C7CCC(=O)NC7=O)c6)CC5)C(F)(F)C4)cccc32)nn2c(C(=O)NC3CC3F)cnc12` (stereo not shown) [I-900], the “TYK2 MSD OCI-LY10 Dmax %” value is recorded as “B (B (90 to >75%))” and the DC50 was less than 10 nM.

Consider `CNc1cc(N2CCc3c(-c4ccc(CN5CCC6(CCN(C(=O)c7ccc(Cl)c(N8CCC(=O)NC8=O)c7)CC6)C(F)(F)C5)cn4)cccc32)nn2c(C(=O)N[C@@H]3C[C@@H]3F)cnc12` [I-901], for which the “TYK2 MSD OCI-LY10 Dmax %” value is “A (A (>90%))” and the DC50 was less than 1 nM.

In the case of `CNc1cc(N2CCc3c(-c4ccc(CN5CCC(N6CCN(CCc7ccc(Cl)c(C8CCC(=O)NC8=O)c7)CC6)C(F)(F)C5)cn4)cccc32)nn2c(C(=O)NC3CC3F)cnc12` (stereo not shown) [I-902], the “TYK2 MSD OCI-LY10 Dmax %” value was “B (B (90 to >75%))” and the DC50 is less than 10 nM.

Regarding `CNc1cc(N2CCc3c(CN4CCC(N5CC(N6CCN(c7cccc8c(N9CCC(=O)NC9=O)nn(C)c78)CC6)C5)C(F)(F)C4)cccc32)nn2c(C(=O)N[C@@H]3C[C@@H]3F)cnc12` (stereo partly shown) [I-903], the “TYK2 MSD OCI-LY10 Dmax %” value is “B (B (90 to >75%))” and the DC50 was less than 10 nM.

`CNc1cc(N2CCc3c(CN4CCC(N5CC(N6CCN(c7cccn8c(N9CCC(=O)NC9=O)cnc78)CC6)C5)C(F)(F)C4)cccc32)nn2c(C(=O)N[C@@H]3C[C@@H]3F)cnc12` (stereo partly shown) [I-904]: the “TYK2 MSD OCI-LY10 Dmax %” value is reported as “A (A (>90%))” and the DC50 was less than 1 nM.

As for `CNc1cc(N2CCc3c(-c4ccc(CN5CCC(N6CCN(c7ccc8c(c7F)n(C)c(=O)n8C7CCC(=O)NC7=O)CC6)C(F)(F)C5)cn4)cccc32)nn2c(C(=O)NC3CC3F)cnc12` (stereo not shown) [I-910], the “TYK2 MSD OCI-LY10 Dmax %” value is reported as “B (B (90 to >75%))” and the DC50 was less than 10 nM.

In the case of `CNC(=O)c1cnc(Nc2ccc(C(=O)NCCOCCOCCOCCOCCN(C(=O)[C@H]3CCCN(c4cncc5ccccc45)C3)c3ccc(=O)n(CC(=O)OC)c3)cn2)cc1Nc1cccc(-c2ncccn2)c1OC` [I-912, Methyl (S)-2-(5-(1-(isoquinolin-4-yl)-N-(1-(6-((4-((2-methoxy-3-(pyrimidin-2-yl)phenyl)amino)-5-(methylcarbamoyl)pyridin-2-yl)amino)pyridin-3-yl)-1-oxo-5,8,11,14-tetraoxa-2-azahexadecan-16-yl)piperidine-3-carboxamido)-2-oxopyridin-1(2H)-yl)acetate], the Dmax (as a rule, the largest share of the target that was removed) was less than 50% and the DC50 was greater than 100 nM.

In the case of `CNC(=O)c1cnc(Nc2ccc(C(=O)NCCOCCOCCN(C(=O)[C@H]3CCCN(c4cncc5ccccc45)C3)c3ccc(=O)n(CC(=O)O)c3)cn2)cc1Nc1cccc(-c2ncccn2)c1OC` [I-915, (S)-2-(5-(1-(isoquinolin-4-yl)-N-(2-(2-(2-(6-((4-((2-methoxy-3-(pyrimidin-2-yl)phenyl)amino)-5-(methylcarbamoyl)pyridin-2-yl)amino)nicotinamido)ethoxy)ethoxy)ethyl)piperidine-3-carboxamido)-2-oxopyridin-1(2H)-yl)acetic acid], the Dmax was in the range of 50 to 75% and the DC50 is 10 to 100 nM.

On to `CNC(=O)c1cnc(Nc2ccc(C(=O)NCCOCCOCCOCCN(C(=O)C3CCCN(c4cncc5ccccc45)C3)c3ccc(=O)n(CC(=O)O)c3)cn2)cc1Nc1cccc(-c2ncccn2)c1OC` (stereo not shown) [I-918], for which the “TYK2 MSD OCI-LY10 Dmax %” value is listed as “D (D (<50%))” and the DC50 is greater than 100 nM.

For `CNC(=O)c1cnc(Nc2ccc(C(=O)NCCOCCOCCOCCOCCN(C(=O)C3CCCN(c4cncc5ccccc45)C3)c3ccc(=O)n(CC(=O)O)c3)cn2)cc1Nc1cccc(-c2ncccn2)c1OC` (stereo not shown) [I-920], the “TYK2 MSD OCI-LY10 Dmax %” value is given as “D (D (<50%))” and the DC50 was greater than 100 nM.

Take `CNc1cc(N2CCc3c(-c4ncc(CN5CC6(CCN(C(=O)c7cc(N8CCC(=O)NC8=O)c(Cl)c(C)n7)CC6(F)F)C5)cc4F)cccc32)nn2c(C(=O)N[C@@H]3C[C@@H]3F)cnc12` [I-930]: the “TYK2 MSD OCI-LY10 Dmax %” value is “A (A (>90%))” and the DC50 was less than 1 nM.

With `CNc1cc(N2CCc3c(-c4ncc(CN5CC6(CCN(C(=O)c7cc(Cl)c(C)c(N8CCC(=O)NC8=O)c7)CC6(F)F)C5)cc4F)cc(F)cc32)nn2c(C(=O)N[C@@H]3C[C@@H]3F)cnc12` [I-944], the “TYK2 MSD OCI-LY10 Dmax %” value is recorded as “A (A (>90%))” and the 50% degradation concentration (DC50) is less than 1 nM.

In the case of `CNc1cc(N2CCc3c(-c4ncc(CN5CC6(CCN(C(=O)c7cc(C)c(Cl)c(N8CCC(=O)NC8=O)c7)CC6(F)F)C5)cc4F)cc(F)cc32)nn2c(C(=O)N[C@@H]3C[C@@H]3F)cnc12` [I-946], the “TYK2 MSD OCI-LY10 Dmax %” value is on record as “A (A (>90%))” and the DC50 is less than 1 nM.

As for `CNc1cc(N2CCc3c(-c4cc(C)c(CN5CC6(CCN(C(=O)c7cc(C)c(Cl)c(N8CCC(=O)NC8=O)c7)CC6(F)F)C5)cn4)cccc32)nn2c(C(=O)N[C@@H]3C[C@@H]3F)cnc12` [I-958], the “TYK2 MSD OCI-LY10 Dmax %” value is listed as “A (A (>90%))” and the DC50 is less than 1 nM.

With `CNc1cc(N2CCc3c(-c4ccc(CN5CC6(CCN(C(=O)c7cc(C)c(Cl)c(N8CCC(=O)NC8=O)c7)CC6(F)F)C5)c(C)n4)cccc32)nn2c(C(=O)N[C@@H]3C[C@@H]3F)cnc12` [I-966], the “TYK2 MSD OCI-LY10 Dmax %” value is recorded as “B (B (90 to >75%))” and the DC50 was less than 10 nM.

For `CNc1cc(N2CCc3c(-c4ccc(CN5CC6(CCN(C(=O)c7ccc(C(F)(F)F)c(N8CCC(=O)NC8=O)c7)CC6(F)F)C5)cn4)cccc32)nn2c(C(=O)N[C@@H]3C[C@@H]3F)cnc12` [I-969], the “TYK2 MSD OCI-LY10 Dmax %” value is on record as “C (C (75 to 50%))” and the DC50 is less than 10 nM.
